# Biological target: autotaxin (ATX) (Homo sapiens, UniProt Q13822)
# Assay type: biochemical
substance,measurement,value
VPC8a202,Ki,~390 nM

# Reference: article PMC2736327 (Molecular carcinogenesis, 2009)
